According to article PMC10060280, “The influence of cyclooxygenase inhibitors on kynurenic acid production in rat kidney: a novel path for kidney protection?” (Pharmacological Reports, 2023):
Structures can show the parent of a compound that is named as a salt. Where two headings read alike, the source gives them in different places. Blank lines part the entries; values can stand above or below the molecule they belong to.

Tests used:
KAT II = target: T1, KAT II (Rattus norvegicus, UniProt Q64602); assay: KAT II activity in rat kidney in vitro; assay type: biochemical; details: 2 µM L-KYN; for IC50: pH 7.0, 2 mM glutamine, read-out: IC50 of KAT II inhibition
T1 construct: kidneys were homogenized in dialysate buffer (1:9; w/v); from tissue; host or cells: rat kidney (dialyzed supernatant of homogenate)
T1 sequence (Q64602 30-425): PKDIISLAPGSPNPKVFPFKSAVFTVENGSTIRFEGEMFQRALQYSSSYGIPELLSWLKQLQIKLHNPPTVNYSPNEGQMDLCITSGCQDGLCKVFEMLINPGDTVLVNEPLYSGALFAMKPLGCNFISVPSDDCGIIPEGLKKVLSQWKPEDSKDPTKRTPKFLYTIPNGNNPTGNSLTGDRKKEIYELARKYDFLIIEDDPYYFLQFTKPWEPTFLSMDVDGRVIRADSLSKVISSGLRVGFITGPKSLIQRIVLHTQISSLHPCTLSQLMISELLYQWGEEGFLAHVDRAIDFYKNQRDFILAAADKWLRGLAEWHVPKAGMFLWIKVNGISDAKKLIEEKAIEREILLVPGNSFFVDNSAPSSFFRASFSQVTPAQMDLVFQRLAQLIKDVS
Protocol: (§1) KAT I and KAT II activity in rat kidneys in vitro was analyzed based on procedures previously presented in a study by Gramsbergen et al.. […] The homogenate was centrifuged (15,133×g, 15 min) and then collected supernatant was dialyzed against 4 L of the dialysate buffer for 12 h at 8 °C with the use of cellulose membrane dialysis tubing. […] L-KYN concentration used in this analysis was equal to plasma KYN concentration, as reported by […] et al., and was sufficient to obtain appropriate enzymatic activity. The optimal pH was set at 9.5 and 7.0 for KAT I or KAT II activity analysis, respectively. Glutamine (2 mM), a KAT I inhibitor, was added to samples to measure KAT II's activity. The reaction was terminated by moving all samples into the ice-cold bath. Finally, all samples were centrifuged and analyzed by HPLC, as described in the previous section. […] To analyze KAT's activity, kidneys from 14 rats were used. Presented data are shown as mean ± standard deviation (SD). The one-way analysis of variance (one-way ANOVA) followed by Tukey's multiple comparison test was applied to analyze differences between tested COX inhibitors. The half-maximal inhibitory concentrations values (IC50) were assessed by fitting the experimental data to a four-parameter logistic equation. Statistical analyses were done with the use of GraphPad Prism 6. Values of p < 0.05 were considered to be statistically significant.

[1] = system: KYNA production in rat kidney; assay: KYNA synthesis in rat kidney homogenate in vitro; assay type: biochemical; details: 10 μM L-KYN; for IC50: 2 h, 37 °C, read-out: IC50 of KYNA production inhibition
Protocol: In the first step, after the animals were decapitated, rat kidneys were harvested and immediately put on ice. Afterward whole kidneys were weighed and homogenized in prepared oxygenated Krebs–Ringer buffer at pH 7.4 (1:4; w/v). 100 µL of kidney homogenate was put into test tubes, pre-filled with oxygenated Krebs–Ringer buffer (containing 800 μL in every tube). […] At least six independent kidney samples were used for each experiment in this part of the study. Control samples, instead of the drug solution, contained an equal volume of a drug solvent (50 µL of DMSO or water). The reaction was stopped by adding 1 N HCl (100 μL per sample) on ice. […] Tissues from 14 animals were used in this part of the study. Presented data are shown as mean ± standard deviation (SD). The one-way analysis of variance (one-way ANOVA) followed by Tukey’s multiple comparison test was applied to analyze differences between tested COX inhibitors. The half-maximal inhibitory concentrations values (IC50) were assessed by fitting the experimental data to a four-parameter logistic equation. Statistical analyses were done with the use of GraphPad Prism 6. Values of p < 0.05 were considered to be statistically significant.

KAT I = target: T2, KAT I (Rattus norvegicus, UniProt Q08415); assay: KAT I activity in rat kidney in vitro; assay type: biochemical; details: 2 µM L-KYN; for effect on KAT I activity: 1 μM-1 mM drug; for IC50: read-out: IC50 of KAT I inhibition
T2 construct: kidneys were homogenized in dialysate buffer (1:9; w/v); from tissue; host or cells: rat kidney (dialyzed supernatant of homogenate)
T2 sequence (Q08415 1-423): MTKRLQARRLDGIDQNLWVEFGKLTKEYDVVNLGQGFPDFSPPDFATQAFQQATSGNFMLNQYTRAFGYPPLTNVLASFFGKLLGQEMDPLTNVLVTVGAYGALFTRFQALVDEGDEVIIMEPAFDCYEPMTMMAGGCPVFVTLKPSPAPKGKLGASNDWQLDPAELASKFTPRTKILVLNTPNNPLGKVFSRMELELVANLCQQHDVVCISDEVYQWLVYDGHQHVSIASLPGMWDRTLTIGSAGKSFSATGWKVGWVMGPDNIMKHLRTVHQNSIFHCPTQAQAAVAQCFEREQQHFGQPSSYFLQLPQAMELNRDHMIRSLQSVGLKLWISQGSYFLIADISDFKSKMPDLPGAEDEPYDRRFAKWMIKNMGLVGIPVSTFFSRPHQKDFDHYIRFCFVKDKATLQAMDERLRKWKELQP
Protocol: as §1

animal models of ADPKD = details: animal model of ADPKD, cited from earlier work
[2] = system: KYNA content in the rat brain; details: cited from earlier work; for KYNA content in the rat brain: after drug administration
serum KYNA concentration = system: serum KYNA concentration; set-up: method as in PMID 36271950; details: 20 healthy volunteers, acute administration, 5 h after drug administration; cited from earlier work
[3] = highest concentration tested 1 mM
[4] = pH 9.5, highest concentration tested 1 mM

Compound: Cc1ccc(-c2cc(C(F)(F)F)nn2-c2ccc(S(N)(=O)=O)cc2)cc1 [celecoxib]
cysts volume (animal models of ADPKD; selective COX-2 blockade): decrease cysts volume

Compound: COc1ccc2c(c1)c(CC(=O)O)c(C)n2C(=O)c1ccc(Cl)cc1 [indomethacin]
IC50 (KAT II; 2 h, 37 °C): 420 µM | IC50 [1]: 246 µM | IC50 (KAT I; pH 9.5, 2 h, 37 °C): 503 µM | KYNA content in the rat brain [2]: elevated KYNA levels

Compound: COc1ccc2cc([C@H](C)C(=O)O)ccc2c1 [naproxen, naproxen sodium]
IC50 (KAT II; 2 h, 37 °C): 504 µM | IC50 [1]: 464 µM | IC50 (KAT I; [4]): > 1000 µM

Compound: CS(=O)(=O)Nc1ccc([N+](=O)[O-])cc1Oc1ccccc1 [nimesulide]
IC50 (KAT II; [3]): > 1000 µM | IC50 [1]: 473 µM | IC50 (KAT I; pH 9.5, 2 h, 37 °C): 128 µM

Compound: CC1=C(CC(=O)O)c2cc(F)ccc2/C1=C\c1ccc([S+](C)[O-])cc1 (stereo not shown) [sulindac]
cysts volume (animal models of ADPKD; nonselective COX inhibition): decrease cysts volume

Continued, in another order:

effect on KAT II activity (KAT II; 1 μM-1 mM drug): not shown to inhibit KAT II activity | effect on KAT I activity (KAT I): did not affect the activity of KAT I
Compound: CC(=O)Nc1ccc(O)cc1 [acetaminophen]
effect on KYNA production ([1]; 1 μM-1 mM drug): did not change KYNA production

IC50 (KAT II; [3]): > 1000 µM | IC50 [1, 3]: > 1000 µM | effect on KAT I activity (KAT I): did not affect the activity of KAT I
Compound: CC(=O)Oc1ccccc1C(=O)O [acetylsalicylic acid]

IC50 (KAT II; 2 h, 37 °C): 191 µM | IC50 [1]: 230 µM | IC50 (KAT I; [4]): > 1000 µM
Compound: O=C(O)Cc1ccccc1Nc1c(Cl)cccc1Cl [diclofenac, diclofenac sodium salt]
decrease of KYNA synthesis ([1]; concentration not given): 64% | KYNA content in the rat brain [2]: elevated KYNA levels | KYNA concentration in the rat brain ([2]; following tail ischemia): increased KYNA concentration

IC50 (KAT II; [3]): > 1000 µM | IC50 [1, 3]: > 1000 µM | effect on KAT I activity (KAT I): did not affect the activity of KAT I
Compound: CC(C)Cc1ccc(C(C)C(=O)O)cc1 (stereo not shown) [ibuprofen]
serum KYNA concentration (serum KYNA concentration): increases serum KYNA concentration

IC50 (KAT II; 2 h, 37 °C): 155 µM | IC50 [1, 3]: > 1000 µM | IC50 (KAT I; pH 9.5, 2 h, 37 °C): 310 µM
Compound: Cc1cnc(NC(=O)C2=C(O)c3ccccc3S(=O)(=O)N2C)s1 [meloxicam, meloxicam sodium salt hydrate]
KYNA content in the rat brain [2]: Decreased KYNA content

IC50 (KAT II; [3]): > 1000 µM | IC50 (KAT I; [4]): > 1000 µM
Compound: CN1C(C(=O)Nc2ccccn2)=C(O)c2ccccc2S1(=O)=O [piroxicam]
